Experimental data from article PMC2222763 (The Journal of General Physiology, 1998).
Values joined by “and” are separate entries in the source; they are usually repeats but may differ in a detail not shown here. Identical values can stand only once. Like-named read-outs stand apart in the source and are kept apart here.

Key:
[1] = test system: large-conductance Ca^2+-activated K^+ channels (BK channels); test: Slow blockade: long shut events and burst durations in single BK channels; type: biochemical, goldfish, Carassius auratus
[2] = test system: large-conductance Ca^2+-activated K^+ channels (BK channels); type: biochemical, goldfish, Carassius auratus; conditions: voltage steps −50 to +50 mV; 20 μM Sr^2+ or 5 μM Ca^2+
[3] = test system: large-conductance Ca^2+-activated K^+ channels (BK channels); type: biochemical, goldfish, Carassius auratus
[4] = test system: large-conductance Ca^2+-activated K^+ channels (BK channels); test: Steady state activation of BK channels; type: biochemical, goldfish, Carassius auratus; conditions: for Po: 20 μM [Sr^2+]i or 5 μM [Ca^2+]i (equipotent); for decrease in V0.5 produced by a 10-fold increase in concentration: slopes of concentration–V0.5 plots
[5] = test system: BK channels; conditions: T-tubule membrane in lipid bilayers; ref Oberhauser et al., 1988; cited from earlier work
[6] = test system: BK channels; conditions: cultured neurons from rat hypothalamus and brain stem; ref Kang et al., 1994; cited from earlier work
[7] = test system: BK channels; conditions: cited from earlier work

## [Sr+2] [Sr^2+, Strontium]
[1]
  duration of long shut events (slow blockade): 10 to 200 ms
[1]; 500 μM [Sr^2+]i at 30 mV
  probability for the open state during bursts (P[open|burst]): 0.86
[1]; 0.5 mM [Sr^2+]i, 30 mV
  time constant of burst durations (τb): 1,310 ms
  time constant of long shut events (τl−s): 75.1 ms
[1]; 0.5 mM [Sr^2+]i, 50 mV
  time constant of burst durations (τb): 631 ms
  time constant of long shut events (τl−s): 44.7 ms
[1]; 2 mM [Sr^2+]i, 30 mV
  time constant of burst durations (τb): 520 ms
  time constant of long shut events (τl−s): 41.3 ms
[1]; 2 mM [Sr^2+]i, 50 mV
  time constant of burst durations (τb): 195 ms
  time constant of long shut events (τl−s): 41.0 ms
[1]; 10 mM Sr^2+, 50 mV, threshold time for long shut events 3.32 ms
  time constant of burst durations (τb): 51.0 ms
[1]; 10 mM Sr^2+, 50 mV, threshold time for long shut events 15.8 ms
  time constant of burst durations (τb): 94.0 ms
[1]; 10 mM [Sr^2+]i at 50 mV
  probability for the open state during bursts (P[open|burst]): 0.94
[1]; 10 mM [Sr^2+]i, 30 mV
  time constant of burst durations (τb): 163 ms
  time constant of long shut events (τl−s): 44.6 ms
[1]; 10 mM [Sr^2+]i, 50 mV
  time constant of long shut events (τl−s): 34.4 ms
[1]; 10 mM [Sr^2+]i, 50 mV (threshold time for long shut events 6.64 ms)
  time constant of burst durations (τb): 63.2 ms
[1]; 10 mV, square patch (Fig. 9 C)
  τb: 425 ms
[1]; 10 mV, triangle patch
  slope of log(n 1−s/n s) versus log([Sr^2+]i): 0.95
  slope of log(τb) versus log([Sr^2+]i): −1.23
  slope of log(τl−s) versus log([Sr^2+]i): −0.15
[1]; 30 mV, circle patch
  slope of log(n 1−s/n s) versus log([Sr^2+]i): 0.71
  slope of log(τb) versus log([Sr^2+]i): −0.74
  slope of log(τl−s) versus log([Sr^2+]i): −0.094
[1]; 30 mV, triangle patch
  slope of log(n 1−s/n s) versus log([Sr^2+]i): 1.08
  slope of log(τb) versus log([Sr^2+]i): −0.78
  slope of log(τl−s) versus log([Sr^2+]i): 0.01
[1]; 50 mV, circle patch
  slope of log(n 1−s/n s) versus log([Sr^2+]i): 0.92
  slope of log(τb) versus log([Sr^2+]i): −0.74
  slope of log(τl−s) versus log([Sr^2+]i): −0.11
[1]; one value per experiment
  zd for slow blockade (Woodhull equation, Eq. 7): 0.95 and 1.84
[1]; square patch
  slope of log(n 1−s/n s) versus log([Sr^2+]i): 1.18
  slope of log(τb) versus log([Sr^2+]i): −1.00
  slope of log(τl−s) versus log([Sr^2+]i): −0.05
[1]; three experiments
  slopes of log(τb) versus log([Sr^2+]i) fitting lines: −0.74 to −1.23
  slopes of log(τl−s) versus log([Sr^2+]i) fitting lines: −0.15–0.01
[2]
  activation time constant: 1.22 ms
  deactivation time constant: 0.61 ms
[3]; 0.1 mM [Sr^2+]i, 50 mV
  single-channel current amplitude: 12.3 pA
[3]; 0.1 mM [Sr^2+]i, 100 mV
  single-channel current amplitude: 23.7 pA
[3]; 1.0 mM [Sr^2+]i, 50 mV
  single-channel current amplitude: 10.9 pA
[3]; 1.0 mM [Sr^2+]i, 100 mV
  single-channel current amplitude: 19.7 pA
[3]; 10 mM [Sr^2+]i, 50 mV
  single-channel current amplitude: 8.0 pA
[3]; 10 mM [Sr^2+]i, 100 mV
  single-channel current amplitude: 9.8 pA
[3]; 1st of 100–30 mV series (100 mV)
  Hill coefficient for amplitude reduction (slope of Hill plot): 0.75
[3]; 2nd of 100–30 mV series (90 mV)
  Hill coefficient for amplitude reduction (slope of Hill plot): 0.73
[3]; 3rd of 100–30 mV series (80 mV)
  Hill coefficient for amplitude reduction (slope of Hill plot): 0.75
[3]; 4th of 100–30 mV series (70 mV)
  Hill coefficient for amplitude reduction (slope of Hill plot): 0.70
[3]; 5th of 100–30 mV series (60 mV)
  Hill coefficient for amplitude reduction (slope of Hill plot): 0.66
[3]; 6th of 100–30 mV series (50 mV)
  Hill coefficient for amplitude reduction (slope of Hill plot): 0.62
[3]; 7th of 100–30 mV series (40 mV)
  Hill coefficient for amplitude reduction (slope of Hill plot): 0.67
[3]; 8th of 100–30 mV series (30 mV)
  Hill coefficient for amplitude reduction (slope of Hill plot): 0.64
[3]; all voltages (30–100 mV), [Sr^2+]i 0.5 mM or higher
  Hill coefficients for amplitude reduction: 0.62–0.75
[3]; concentration and voltage dependent
  internal concentration producing fast and slow blockade: > 100 µM
[3]; no shift in the reversal voltage in the current–voltage relation
  permeation of the channel: could scarcely permeate the channel
[4]; 5 μM [Sr^2+]i
  half-activation voltage V0.5 (Boltzmann distribution): 72 mV
  n (equivalent number of gating charges, Boltzmann distribution): 1.6
[4]; 20 μM [Sr^2+]i
  half-activation voltage V0.5 (Boltzmann distribution): 39 mV
  n (equivalent number of gating charges, Boltzmann distribution): 1.4
[4]; 200 μM [Sr^2+]i
  half-activation voltage V0.5 (Boltzmann distribution): 1 mV
  n (equivalent number of gating charges, Boltzmann distribution): 1.3
[4]; 1,000 μM [Sr^2+]i
  half-activation voltage V0.5 (Boltzmann distribution): −22 mV
  n (equivalent number of gating charges, Boltzmann distribution): 1.3
[4]; 2nd of +50 to −50 mV series (40 mV)
  Hill coefficient for activation (slope of Hill plot): 1.3
[4]; 3rd of +50 to −50 mV series (30 mV)
  Hill coefficient for activation (slope of Hill plot): 1.2
[4]; 4th of +50 to −50 mV series (20 mV)
  Hill coefficient for activation (slope of Hill plot): 1.0
[4]; 5th of +50 to −50 mV series (10 mV)
  Hill coefficient for activation (slope of Hill plot): 0.83
[4]; 6th of +50 to −50 mV series (−10 mV)
  Hill coefficient for activation (slope of Hill plot): 0.69
[4]; 7th of +50 to −50 mV series (−20 mV)
  Hill coefficient for activation (slope of Hill plot): 0.70
[4]; 8th of +50 to −50 mV series (−30 mV)
  Hill coefficient for activation (slope of Hill plot): 0.79
[4]; 9th of +50 to −50 mV series (−40 mV)
  Hill coefficient for activation (slope of Hill plot): 0.78
[4]; 10th of +50 to −50 mV series (−50 mV)
  Hill coefficient for activation (slope of Hill plot): 0.72
[4]; 50 mV
  Hill coefficient for activation (slope of Hill plot): 1.6
  Po: 0.309
[4]; between −10 and −50 mV
  Hill coefficient for activation: ~0.7
[4]; from concentration–V0.5 plots, eight membrane patches
  potency in activating BK channels relative to Ca^2+: approximately one-fourth
[4]; eight membrane patches
  decrease in V0.5 produced by a 10-fold increase in concentration: ~25 mV

## [Ca+2].[Cl-].[Cl-] [Ca^2+]
[5]
  potency of fast blockade relative to Mg^2+ or Sr^2+: > 10 ×
[2]
  activation time constant: 1.14 ms
  deactivation time constant: 0.54 ms
[3]; 5 μM [Ca^2+]i, 50 mV (original amplitude)
  single-channel current amplitude: 13.2 pA
[3]; 5 μM [Ca^2+]i, 100 mV (original amplitude)
  single-channel current amplitude: 26.1 pA
[4]; 50 mV
  Hill coefficient for activation (slope of Hill plot): 2.7
  Po: 0.315
[4]; eight membrane patches
  decrease in V0.5 produced by a 10-fold increase in concentration: ~35 mV
[6]
  potency in reducing the outward current amplitude relative to internal Mg^2+: ~1,000 ×

## [Ba+2] [Ba^2+, barium ion]
[1]; 20 μM [Ba^2+]i, 100 μM [Ca^2+]i, 50 mV, area 162 events
  time constant of long shut events, second exponential: 359 ms
[1]; 20 μM [Ba^2+]i, 100 μM [Ca^2+]i, 50 mV, area 372 events
  time constant of long shut events, first exponential: 18.8 ms
[7]; ref Benham et al., 1985
  depth of the binding site within the membrane voltage field (Ba^2+ blockade): 0.96
[7]; ref Diaz et al., 1996
  depth of the binding site within the membrane voltage field (Ba^2+ blockade): 0.92
[7]; ref Neyton and Miller, 1988
  depth of the binding site within the membrane voltage field (Ba^2+ blockade): 0.5–0.7
[7]; ref Vergara and Latorre, 1983
  depth of the binding site within the membrane voltage field (Ba^2+ blockade): 0.8
